{
  "source": "paper PMC8815339",
  "about": "(The Biochemical journal, 2009)",
  "key": {"P. falciparum 3D7-luc": {"target": "P. falciparum 3D7-luc", "assay": "Parasite growth inhibition, luciferase-expressing strain 3D7-luc", "type": "cell-based, Plasmodium falciparum", "conditions": "for IC50: read-out: IC50s for 3D7 growth"}, "rat PRMT1 (rPRMT1)": {"test_system": "rat PRMT1 (rPRMT1)", "conditions": "cited from earlier work"}, "[1]": {"target": "T1, recombinant PfPRMT1 (MBP-PfPRMT1) (Plasmodium falciparum, UniProt Q8ILK1)", "T1 sequence (Q8ILK1 1-401)": "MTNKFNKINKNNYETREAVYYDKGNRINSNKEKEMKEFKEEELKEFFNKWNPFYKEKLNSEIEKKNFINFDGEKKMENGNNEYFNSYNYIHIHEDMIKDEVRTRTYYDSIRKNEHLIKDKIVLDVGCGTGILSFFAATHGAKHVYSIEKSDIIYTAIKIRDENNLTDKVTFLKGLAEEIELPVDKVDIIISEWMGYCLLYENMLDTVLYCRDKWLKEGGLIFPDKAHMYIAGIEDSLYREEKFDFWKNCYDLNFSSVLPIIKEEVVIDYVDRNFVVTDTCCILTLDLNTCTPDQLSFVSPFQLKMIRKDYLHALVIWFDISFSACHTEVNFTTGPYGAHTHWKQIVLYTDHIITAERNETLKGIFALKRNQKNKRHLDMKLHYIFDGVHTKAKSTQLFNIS", "assay": "Inhibition of recombinant PfPRMT1 methylation activity", "type": "biochemical", "conditions": "chaetocin: in the lower micromolar concentration"}, "[2]": {"conditions": "late ring-stage parasites, 48 h, 37°C, 2% parasitemia, 2% hematocrit"}, "[3]": {"conditions": "Plasmodium falciparum, 3D7, 48 h"}},
  "note": "Read-outs that look alike come from different tables or passages of the source.",
  "data": [
    {"smiles": "CSC[C@H]1O[C@@H](n2cnc3c(N)ncnc32)[C@H](O)[C@@H]1O", "note": "[5-Deoxy-5-methylthioadenosine (MTA), 5-Deoxy-5-methylthioadenosine]", "values": [
      {"measurement": "IC50", "setting": "P. falciparum 3D7-luc; [2]", "value": "> 100", "unit": "µM"}
    ]},
    {"smiles": "C[S+](CC[C@H](N)C(=O)[O-])C[C@H]1O[C@@H](n2cnc3c(N)ncnc32)[C@H](O)[C@@H]1O", "note": "(stereo partly drawn) [AdoMet, S-adenosylmethionine]", "values": [
      {"measurement": "Km", "setting": "rat PRMT1 (rPRMT1); read-out: Km, rPRMT1, ref [31]", "value": "2.52 ± 0.54", "unit": "µM"},
      {"measurement": "kcat, rPRMT1", "setting": "rat PRMT1 (rPRMT1); ref [31]", "value": "0.014 ± 0.0005", "unit": "s⁻¹"}
    ]},
    {"smiles": "CN1C(=O)[C@@]23C[C@]4([C@]56C[C@@]78SS[C@@](CO)(C(=O)N7[C@H]5Nc5ccccc56)N(C)C8=O)c5ccccc5N[C@@H]4N2C(=O)[C@]1(CO)SS3", "note": "[Chaetocin]", "values": [
      {"measurement": "Inhibition of PfPRMT1 (in words)", "setting": "[1]", "value": "no obvious inhibition"},
      {"measurement": "IC50", "setting": "P. falciparum 3D7-luc; [3]", "value": "14 ± 1.56", "unit": "µM"}
    ]},
    {"smiles": "O=C1OC2(c3ccccc31)c1cc(Br)c(O)c(Br)c1Oc1c2cc(Br)c(O)c1Br", "note": "[Eosin Y (AMI-5), Eosin Y]", "values": [
      {"measurement": "Inhibition of PfPRMT1 (in words)", "setting": "[1]", "value": "strong inhibitory activity"},
      {"measurement": "IC50", "setting": "P. falciparum 3D7-luc; [3]", "value": "14.8 ± 1.01", "unit": "µM"}
    ]},
    {"smiles": "Nc1ncnc2c1ncn2[C@@H]1O[C@H](C[C@@H](N)CC[C@H](N)C(=O)O)[C@@H](O)[C@H]1O", "note": "[Sinefungin]", "values": [
      {"measurement": "IC50", "setting": "P. falciparum 3D7-luc; [3]", "value": "2.71 ± 0.04", "unit": "µM"},
      {"measurement": "IC50s for 3D7 growth", "setting": "P. falciparum 3D7-luc; [2]", "value": "lower micromolar"}
    ]}
  ]
}
